According to patent US7244431B2, “Allergy vaccines and their preparation” (priority 2000, dated 2007):

Experiments:
[1] = system: IgE antibodies in sera from birch pollen allergic patients; assay: ELISA detection of peptide- and rBet v 1-specific IgE antibodies; type: binding, human
How it was run: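 IgE binding detected by 1:1000 alkaline-phosphatase mouse monoclonal anti-human IgE after overnight 4 °C incubation with 1:3-diluted sera. Sera came from 60 birch pollen allergic patients (25 male, 35 female, age 19–60) and a non-atopic control.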

[2] = system: birch pollen allergic patients; assay: Skin prick testing of allergic patients; type: in vivo, human; conditions: 100 μg/ml
Procedure: SPTs were performed on the individuals forearms as described ([…]. et al. (1997) J. Clin Invest. 99, 1673-168; Dreborg S: (1989) J. Am. Acad. DerMatol. 21, 820-821). […] In addition standardized skin prick solutions (birch pollen extract and histamine) (Allergopharma, Reinbek, Germany) were tested. Reactions were recorded 20 minutes after SPT by photography and by transferring the ballpoint pen-surrounded wheal area with a scotch tape to paper.

LFPKVAPQAISSVENIEGNGGPGTIKKISFC [Peptide P2, Bet v 1-derived synthetic peptide, position aa 30-59, one cysteine added]
IgE (OD) ([1]; serum of NHS, non-allergic control individual): — (Dashes indicate reactivities below the cut-off level (OD=0.050))
IgE (OD) ([1]; serum of patient 1): — (Dashes indicate reactivities below the cut-off level (OD=0.050))
IgE (OD) ([1]; serum of patient 2): — (Dashes indicate reactivities below the cut-off level (OD=0.050))
IgE (OD) ([1]; serum of patient 3): — (Dashes indicate reactivities below the cut-off level (OD=0.050))
IgE (OD) ([1]; serum of patient 4): — (Dashes indicate reactivities below the cut-off level (OD=0.050))
IgE (OD) ([1]; serum of patient 5): — (Dashes indicate reactivities below the cut-off level (OD=0.050))
IgE (OD) ([1]; serum of patient 6): — (Dashes indicate reactivities below the cut-off level (OD=0.050))
IgE (OD) ([1]; serum of patient 7): — (Dashes indicate reactivities below the cut-off level (OD=0.050))
IgE (OD) ([1]; serum of patient 8): — (Dashes indicate reactivities below the cut-off level (OD=0.050))
IgE (OD) ([1]; serum of patient 9): — (Dashes indicate reactivities below the cut-off level (OD=0.050))
IgE (OD) ([1]; serum of patient 10): — (Dashes indicate reactivities below the cut-off level (OD=0.050))
IgE (OD) ([1]; serum of patient 11): — (Dashes indicate reactivities below the cut-off level (OD=0.050))
IgE (OD) ([1]; serum of patient 12): — (Dashes indicate reactivities below the cut-off level (OD=0.050))
IgE (OD) ([1]; serum of patient 13): — (Dashes indicate reactivities below the cut-off level (OD=0.050))
IgE (OD) ([1]; serum of patient 14): — (Dashes indicate reactivities below the cut-off level (OD=0.050))
IgE (OD) ([1]; serum of patient 15): — (Dashes indicate reactivities below the cut-off level (OD=0.050))
IgE (OD) ([1]; serum of patient 16): — (Dashes indicate reactivities below the cut-off level (OD=0.050))
IgE (OD) ([1]; serum of patient 17): — (Dashes indicate reactivities below the cut-off level (OD=0.050))
IgE (OD) ([1]; serum of patient 18): — (Dashes indicate reactivities below the cut-off level (OD=0.050))
IgE (OD) ([1]; serum of patient 19): — (Dashes indicate reactivities below the cut-off level (OD=0.050))
IgE (OD) ([1]; serum of patient 20): — (Dashes indicate reactivities below the cut-off level (OD=0.050))
IgE (OD) ([1]; serum of patient 21): — (Dashes indicate reactivities below the cut-off level (OD=0.050))
IgE (OD) ([1]; serum of patient 22): — (Dashes indicate reactivities below the cut-off level (OD=0.050))
IgE (OD) ([1]; serum of patient 23): — (Dashes indicate reactivities below the cut-off level (OD=0.050))
IgE (OD) ([1]; serum of patient 24): — (Dashes indicate reactivities below the cut-off level (OD=0.050))
IgE (OD) ([1]; serum of patient 25): — (Dashes indicate reactivities below the cut-off level (OD=0.050))
IgE (OD) ([1]; serum of patient 26): — (Dashes indicate reactivities below the cut-off level (OD=0.050))
IgE (OD) ([1]; serum of patient 27): — (Dashes indicate reactivities below the cut-off level (OD=0.050))
IgE (OD) ([1]; serum of patient 28): — (Dashes indicate reactivities below the cut-off level (OD=0.050))
IgE (OD) ([1]; serum of patient 29): — (Dashes indicate reactivities below the cut-off level (OD=0.050))
IgE (OD) ([1]; serum of patient 30): — (Dashes indicate reactivities below the cut-off level (OD=0.050))
IgE (OD) ([1]; serum of patient 31): — (Dashes indicate reactivities below the cut-off level (OD=0.050))
IgE (OD) ([1]; serum of patient 32): — (Dashes indicate reactivities below the cut-off level (OD=0.050))
IgE (OD) ([1]; serum of patient 33): — (Dashes indicate reactivities below the cut-off level (OD=0.050))
IgE (OD) ([1]; serum of patient 34): — (Dashes indicate reactivities below the cut-off level (OD=0.050))
IgE (OD) ([1]; serum of patient 35): — (Dashes indicate reactivities below the cut-off level (OD=0.050))
IgE (OD) ([1]; serum of patient 36): — (Dashes indicate reactivities below the cut-off level (OD=0.050))
IgE (OD) ([1]; serum of patient 37): — (Dashes indicate reactivities below the cut-off level (OD=0.050))
IgE (OD) ([1]; serum of patient 38): — (Dashes indicate reactivities below the cut-off level (OD=0.050))
IgE (OD) ([1]; serum of patient 39): — (Dashes indicate reactivities below the cut-off level (OD=0.050))
IgE (OD) ([1]; serum of patient 40): — (Dashes indicate reactivities below the cut-off level (OD=0.050))
IgE (OD) ([1]; serum of patient 41): — (Dashes indicate reactivities below the cut-off level (OD=0.050))
IgE (OD) ([1]; serum of patient 42): — (Dashes indicate reactivities below the cut-off level (OD=0.050))
IgE (OD) ([1]; serum of patient 43): — (Dashes indicate reactivities below the cut-off level (OD=0.050))
IgE (OD) ([1]; serum of patient 44): — (Dashes indicate reactivities below the cut-off level (OD=0.050))
IgE (OD) ([1]; serum of patient 45): — (Dashes indicate reactivities below the cut-off level (OD=0.050))
IgE (OD) ([1]; serum of patient 46): — (Dashes indicate reactivities below the cut-off level (OD=0.050))
IgE (OD) ([1]; serum of patient 47): — (Dashes indicate reactivities below the cut-off level (OD=0.050))
IgE (OD) ([1]; serum of patient 48): — (Dashes indicate reactivities below the cut-off level (OD=0.050))
IgE (OD) ([1]; serum of patient 49): — (Dashes indicate reactivities below the cut-off level (OD=0.050))
IgE (OD) ([1]; serum of patient 50): — (Dashes indicate reactivities below the cut-off level (OD=0.050))
IgE (OD) ([1]; serum of patient 51): — (Dashes indicate reactivities below the cut-off level (OD=0.050))
IgE (OD) ([1]; serum of patient 52): — (Dashes indicate reactivities below the cut-off level (OD=0.050))
IgE (OD) ([1]; serum of patient 53): — (Dashes indicate reactivities below the cut-off level (OD=0.050))
IgE (OD) ([1]; serum of patient 54): — (Dashes indicate reactivities below the cut-off level (OD=0.050))
IgE (OD) ([1]; serum of patient 55): — (Dashes indicate reactivities below the cut-off level (OD=0.050))
IgE (OD) ([1]; serum of patient 56): — (Dashes indicate reactivities below the cut-off level (OD=0.050))
IgE (OD) ([1]; serum of patient 57): — (Dashes indicate reactivities below the cut-off level (OD=0.050))
IgE (OD) ([1]; serum of patient 58): — (Dashes indicate reactivities below the cut-off level (OD=0.050))
IgE (OD) ([1]; serum of patient 59): — (Dashes indicate reactivities below the cut-off level (OD=0.050))
IgE (OD) ([1]; serum of patient 60): — (Dashes indicate reactivities below the cut-off level (OD=0.050))
mean wheal diameter ([2]; individual 1): 0 mm
mean wheal diameter ([2]; individual 2): 0 mm
mean wheal diameter ([2]; individual 3): 0 mm
mean wheal diameter ([2]; individual 4): 0 mm
mean wheal diameter ([2]; individual 5): 0 mm
mean wheal diameter ([2]; individual 6 (allergic, without birch pollen allergy)): 0 mm
